Measured values taken from US5352462A, “Anti-inflammatory factor, method of isolation, and use” (Stolle Research & Development Corporation, priority 1992, dated 1994).

Tests used:
[1] = tested on: circulating neutrophils and lymphocytes; assay: Circulating leucocytes after i.v. administration; type: in vivo, rat
Protocol: Two experiments were done. In the first, the MAIF preparation was administered intravenously at a dose of 40 mg/rat to one group of 6 animals and a control group was injected with saline. Blood samples were obtained at baseline, 1, 4, and 24 hours after treatment.
A further dose-response study was carried out in which a group of rats were injected intravenously with saline, 5, 10 or 20 mg of the MAIF preparation. Blood from each rat had been taken 7 days previously to provide baseline values and was taken again 4 hours after the injection of MAIF. Included on the graph are the results obtained from the sample taken 4 hours after the administration of 40 mg the MAIF preparation (see FIG. 31).
Data were also obtained pertaining to the effect of three other cell-targeted, anti-inflammatory/immunomodulatory agents on circulating leucocytes in the rat. […] The temporal relationship between drug administration and effect is somewhat different. […] The effects of the anti-inflammatory factor would appear to closely parallel the action of methyl-prednisolone.

[2] = tested on: superoxide production by neutrophils; assay: Superoxide assay, cytochrome C reduction by stimulated neutrophils; type: cell-based, human
Protocol: Neutrophils from healthy donors were purified by dextran sedimentation followed by hypotonic lysis and Histopaque centrifugation. Except for the dextran sedimentation step, which was performed at room temperature, the cells were kept at 4° C. throughout the isolation procedure. […] After isolation, neutrophils were resuspended at a final concentration of 2×10^6 cells/ml in phosphate buffered saline (PBS). […] After washing, neutrophils were incubated in the dark at 4° C. for 30 minutes with saturating concentrations of fluorescein-conjugated murine anti-human CD18, human CD11 b, IGG coated microbeads (Simply Cellular™ microbeads) or the murine negative control antibody.
The reduction of cytochrome C by activated neutrophils was measured using a spectrophotometer (Hitachi U2000) at 550 nm. Briefly, sample was added to two cuvettes and one cuvette was used as a reference. The latter contained superoxide dismutase (superoxide scavenger). […] Superoxide production was measured for 3 min.

[3] = tested on: neutrophil adhesion to venular endothelium; assay: Intravital microscopy of PAF-exposed rat mesenteric venules; type: in vivo; settings: PAF superfusion 100 nM, 60 min
Protocol: The temperature of the pedestal was maintained at 37° C. with a constant temperature circulator (Fisher Scientific, model 80).

[4] = tested on: carrageenan-induced footpad edema; assay: Quantitative rat paw edema test with 125I-HSA; type: in vivo; settings: aspirin 200 mg/kg oral, 30 min prior
Protocol: Peak I from the G-10 column, supplied by Stolle Milk Biologics International, was prepared according to the methods described in U.S. Pat. No. 4,956,349. Lactose, obtained from commercial sources, was used as placebo. Aspirin was used as a positive control. Aspirin was dissolved in water and given orally by gastric gavage at the ratio of 200 mg per kilogram, a dose known to be active in the assay. […] The footpad assay was modified by using isotopically labeled human serum albumin (^125 I-HSA) that localizes in the carrageenan-induced lesion in direct proportion to the volume of the exudate. By determining the total radioactive count in the footpad and comparing this to the counts in a known volume of plasma from the injected animal, a direct measurement of edema in microliters of plasma equivalents is obtained. ^125 I-HSA was injected intravenously at a dose of 1.0 microcurie per rat. Female Dark Agouti rats were used. […]
To conduct the carrageenan footpad assay, 0.1 ml of 2% carrageenan was injected subcutaneously into each hind foot pad of an anesthetized rat. […] Both hind feet were then removed and the levels of radioactivity in each foot and in the 200 μl plasma standard were measured in an automated gamma counter. From these measurements the volume of edema in each foot was calculated and expressed in microliters. […]

[5] = tested on: reverse passive Arthus reaction; assay: Reverse passive Arthus reaction; type: in vivo, rat; settings: 20 mg i.v.
Protocol: The possibility that the anti-inflammatory factor might affect neutrophil involvement was investigated by evaluating the ability of the material to modulate the reverse passive Arthus reaction (RPA). This immune complex-induced response is primarily neutrophil mediated and agents which affect the development of the reaction do so via an effect on these cells. To induce the RPA, rats were injected intradermally with rabbit antibody to ovalbumin and intravenously with native ovalbumin. Ovalbumin/ovalbumin-antibody immune complexes form in and around the dermal blood vessel walls, host neutrophils bind to the Fc portion of the antibody and an intense inflammatory reaction is initiated. It should be noted that, although the response is initiated by immune-complexes, it takes place independently of the host's immune system.
Three parameters are used to quantify the RPA. These are, (1) edema--measured using the accumulation of ^125 I-HSA, (2) hemorrhage--assessed by in vivo pre-labelling RBC's with ^59 Fe and (3) neutrophil accumulation--measured by determining tissue levels of the neutrophils specific enzyme myeloperoxidase (MPO). These assays are known to those of ordinary skill in the art.
Eighteen rats were divided into three groups of six. Rabbit antiovalbumin (40 μl) was injected intradermally at four sites on the back of each animal and 2 mg of ovalbumin injected intravenously immediately afterwards. One group of animals received no other treatment and served as controls. The second group were injected intravenously with 20 mg of a lactose preparation, while the final group were injected intravenously with 20 mg of a purified preparation of MAIF. Both lactose and MAIF preparation were administered with the ovalbumin. The severity of the reaction was assessed 3.5 hours after challenge.

C[C@H]1C[C@@H]2[C@H]([C@@H](O)C[C@@]3(C)[C@H]2CC[C@]3(O)C(=O)CO)[C@@]2(C)C=CC(=O)C=C12 [methylprednisolone]
lymphocyte/neutrophil ratio ([1]; rat, in vivo): analogous to that seen with MAIF

superoxide dismutase
cytochrome c reduction by PMA and fMLP-stimulated neutrophils [2]: completely blocked

CCCCCCCCCCCCCCCCOCC(COP(=O)([O-])OCC[N+](C)(C)C)OC(C)=O (stereo not drawn) [PAF]
increase in neutrophil adhesion to postcapillary venules [3]: approximately 6 fold

CC(=O)Oc1ccccc1C(=O)O [aspirin, Acetylsalicylic acid]
inhibition of edema [4]: inhibited

O=P1(N(CCCl)CCCl)NCCCO1 (stereo not drawn) [cyclophosphamide]
circulating lymphocytes and neutrophils ([1]; comparator agents): depletes both circulating lymphocytes and neutrophils

OC[C@H]1O[C@@H](O[C@H]2[C@H](O)[C@@H](O)C(O)O[C@@H]2CO)[C@H](O)[C@@H](O)[C@H]1O (stereo partly drawn) [Lactose]
suppression of neutrophil accumulation and hemorrhage [5]: modest and marginally significant suppression | Haemorrhage: μl of RBC ([5]; 3.5 hours after challenge): 3.0 ± 1.5 μl of RBC | Neutrophil accumulation: Units of MPO ([5]; 3.5 hours after challenge): 0.214 ± .176 Units of MPO | μl of Edema ([5]; 3.5 hours after challenge): 104 ± 23 µL
